In brackets after ≈: the same amount, converted by molar mass.
What was measured:
Type in all cases: functional
[1] = tested on: Staphylococcus epidermidis; assay: Antibacterial activity against Staphylococcus epidermidis ATCC 51625 assessed as bacterial growth inhibition measured after 20 hrs by broth dilution method
Enterococcus faecium [2] = assay: Antibacterial activity against vancomycin-resistant Enterococcus faecium ATCC 700221 assessed as bacterial growth inhibition measured after 20 hrs by broth dilution method
Streptococcus pneumoniae [3] = assay: Ratio of MBC to MIC against penicillin-intermediate Streptococcus pneumoniae ATCC 49619
Enterococcus faecium [4] = assay: Ratio of MBC to MIC against vancomycin-resistant Enterococcus faecium ATCC 700221
Streptococcus pneumoniae [5] = assay: Antibacterial activity against penicillin-intermediate Streptococcus pneumoniae ATCC 49619 assessed as bacterial growth inhibition measured after 20 hrs by broth dilution method
Staphylococcus aureus [6] = assay: Antibacterial activity against methicillin-resistant Staphylococcus aureus ATCC 33591 assessed as bacterial growth inhibition measured after 20 hrs by broth dilution method
Enterococcus faecium [7] = assay: Ratio of MBC to MIC against vancomycin-resistant Enterococcus faecium ATCC 51559
[8] = tested on: Staphylococcus epidermidis; assay: Ratio of MBC to MIC against Staphylococcus epidermidis ATCC 51625
Streptococcus pneumoniae [9] = assay: Antibacterial activity against penicillin-resistant Streptococcus pneumoniae ATCC 51916 assessed as bacterial growth inhibition measured after 20 hrs by broth dilution method
Enterococcus faecium [10] = assay: Antibacterial activity against vancomycin-resistant Enterococcus faecium ATCC 51559 assessed as bacterial growth inhibition measured after 20 hrs by broth dilution method
Staphylococcus aureus [11] = assay: Antibacterial activity against methicillin-resistant Staphylococcus aureus ATCC 43300 assessed as bacterial growth inhibition measured after 20 hrs by broth dilution method
Staphylococcus aureus [12] = assay: Ratio of MBC to MIC against Staphylococcus aureus ATCC 43300
Streptococcus pneumoniae [13] = assay: Ratio of MBC to MIC against penicillin-resistant Streptococcus pneumoniae ATCC 51916
Staphylococcus aureus [14] = assay: Ratio of MBC to MIC against methicillin-resistant Staphylococcus aureus ATCC 33591

SMILES	MIC [1]	MIC (Enterococcus faecium [2])	Ratio (Streptococcus pneumoniae [3])	Ratio (Enterococcus faecium [4])	MIC (Streptococcus pneumoniae [5])	MIC (Staphylococcus aureus [6])	Ratio (Enterococcus faecium [7])	Ratio [8]	MIC (Streptococcus pneumoniae [9])	MIC (Enterococcus faecium [10])	MIC (Staphylococcus aureus [11])	Ratio (Staphylococcus aureus [12])	Ratio (Streptococcus pneumoniae [13])	Ratio (Staphylococcus aureus [14])
C=C[C@]1(C)C[C@@H](OC(=O)CSCCOc2cc(=O)oc3ccc(F)cc23)[C@]2(C)[C@H](C)CC[C@]3(CCC(=O)[C@H]32)[C@@H](C)[C@@H]1O	0.125 µg/mL (≈ 0.208 µM)	1 µg/mL (≈ 1.66 µM)	>4	>4	1 µg/mL (≈ 1.66 µM)	0.5 µg/mL (≈ 0.832 µM)	4	>4	1 µg/mL (≈ 1.66 µM)	8 µg/mL (≈ 13.3 µM)	0.5 µg/mL (≈ 0.832 µM)	>4		
C=C[C@]1(C)C[C@@H](OC(=O)CSCCOc2cc(=O)oc3cc(Br)ccc23)[C@]2(C)[C@H](C)CC[C@]3(CCC(=O)[C@H]32)[C@@H](C)[C@@H]1O	0.125 µg/mL (≈ 0.189 µM)	0.125 µg/mL (≈ 0.189 µM)	>4	2	0.125 µg/mL (≈ 0.189 µM)	0.125 µg/mL (≈ 0.189 µM)	2	>4	0.25 µg/mL (≈ 0.378 µM)	0.5 µg/mL (≈ 0.756 µM)	0.25 µg/mL (≈ 0.378 µM)	>4		
C=C[C@]1(C)C[C@@H](OC(=O)CSCCOc2cc(=O)oc3ccc(OC)cc23)[C@]2(C)[C@H](C)CC[C@]3(CCC(=O)[C@H]32)[C@@H](C)[C@@H]1O	0.031 µg/mL (≈ 0.0506 µM)	0.063 µg/mL (≈ 0.103 µM)	>4	>4	0.125 µg/mL (≈ 0.204 µM)	0.125 µg/mL (≈ 0.204 µM)	1	4	0.125 µg/mL (≈ 0.204 µM)	0.25 µg/mL (≈ 0.408 µM)	0.25 µg/mL (≈ 0.408 µM)	>4		
C=C[C@]1(C)C[C@@H](OC(=O)CSCCOc2cc(=O)oc3ccc(C)cc23)[C@]2(C)[C@H](C)CC[C@]3(CCC(=O)[C@H]32)[C@@H](C)[C@@H]1O	0.125 µg/mL (≈ 0.209 µM)	0.125 µg/mL (≈ 0.209 µM)	2	>4	0.063 µg/mL (≈ 0.106 µM)	0.25 µg/mL (≈ 0.419 µM)	1	>4	0.25 µg/mL (≈ 0.419 µM)	0.25 µg/mL (≈ 0.419 µM)	0.125 µg/mL (≈ 0.209 µM)	>4	>4	
C=C[C@]1(C)C[C@@H](OC(=O)CSc2cc(=O)oc3ccc(OC)cc23)[C@]2(C)[C@H](C)CC[C@]3(CCC(=O)[C@H]32)[C@@H](C)[C@@H]1O	0.063 µg/mL (≈ 0.111 µM)	0.063 µg/mL (≈ 0.111 µM)	>4	>4	0.125 µg/mL (≈ 0.22 µM)	0.125 µg/mL (≈ 0.22 µM)	2	>4	0.125 µg/mL (≈ 0.22 µM)	0.125 µg/mL (≈ 0.22 µM)	0.125 µg/mL (≈ 0.22 µM)	2		4
C=C[C@]1(C)C[C@@H](OC(=O)CSCCOc2cc(=O)oc3cc(C)ccc23)[C@]2(C)[C@H](C)CC[C@]3(CCC(=O)[C@H]32)[C@@H](C)[C@@H]1O	0.063 µg/mL (≈ 0.106 µM)	0.125 µg/mL (≈ 0.209 µM)	2	2	0.125 µg/mL (≈ 0.209 µM)	0.125 µg/mL (≈ 0.209 µM)	1	4	0.25 µg/mL (≈ 0.419 µM)	0.25 µg/mL (≈ 0.419 µM)	0.25 µg/mL (≈ 0.419 µM)	>4	4	
C=C[C@]1(C)C[C@@H](OC(=O)CSc2cc(=O)oc3ccc(C)cc23)[C@]2(C)[C@H](C)CC[C@]3(CCC(=O)[C@H]32)[C@@H](C)[C@@H]1O	0.063 µg/mL (≈ 0.114 µM)	0.25 µg/mL (≈ 0.452 µM)	4	4	0.25 µg/mL (≈ 0.452 µM)	0.125 µg/mL (≈ 0.226 µM)	2	>4	0.125 µg/mL (≈ 0.226 µM)	2 µg/mL (≈ 3.62 µM)	0.125 µg/mL (≈ 0.226 µM)	>4	>4	
C=C[C@]1(C)C[C@@H](OC(=O)CSc2cc(=O)oc3ccc(Cl)cc23)[C@]2(C)[C@H](C)CC[C@]3(CCC(=O)[C@H]32)[C@@H](C)[C@@H]1O	0.063 µg/mL (≈ 0.11 µM)	0.125 µg/mL (≈ 0.218 µM)	2	>4	0.125 µg/mL (≈ 0.218 µM)	0.125 µg/mL (≈ 0.218 µM)	2	>4	0.125 µg/mL (≈ 0.218 µM)	0.5 µg/mL (≈ 0.872 µM)	0.25 µg/mL (≈ 0.436 µM)	>4	4	
C=C[C@]1(C)C[C@@H](OC(=O)CSCCOc2cc(=O)oc3ccc([N+](=O)[O-])cc23)[C@]2(C)[C@H](C)CC[C@]3(CCC(=O)[C@H]32)[C@@H](C)[C@@H]1O	0.031 µg/mL (≈ 0.0494 µM)	0.063 µg/mL (≈ 0.1 µM)	2	2	0.063 µg/mL (≈ 0.1 µM)	0.125 µg/mL (≈ 0.199 µM)	2	>4	0.063 µg/mL (≈ 0.1 µM)	0.25 µg/mL (≈ 0.398 µM)	0.125 µg/mL (≈ 0.199 µM)	>4	>4	
C=C[C@]1(C)C[C@@H](OC(=O)CSc2cc(=O)oc3ccc(Br)cc23)[C@]2(C)[C@H](C)CC[C@]3(CCC(=O)[C@H]32)[C@@H](C)[C@@H]1O	0.063 µg/mL (≈ 0.102 µM)	0.25 µg/mL (≈ 0.405 µM)	2	>4	0.25 µg/mL (≈ 0.405 µM)	0.125 µg/mL (≈ 0.202 µM)	>4	>4	0.063 µg/mL (≈ 0.102 µM)	0.25 µg/mL (≈ 0.405 µM)	0.25 µg/mL (≈ 0.405 µM)	>4	>4	
C=C[C@]1(C)C[C@@H](OC(=O)CSCCOc2cc(=O)oc3ccc(Cl)cc23)[C@]2(C)[C@H](C)CC[C@]3(CCC(=O)[C@H]32)[C@@H](C)[C@@H]1O	0.125 µg/mL (≈ 0.203 µM)	1 µg/mL (≈ 1.62 µM)	>4	>4	4 µg/mL (≈ 6.48 µM)	0.5 µg/mL (≈ 0.81 µM)	>4	>4	2 µg/mL (≈ 3.24 µM)	1 µg/mL (≈ 1.62 µM)	0.5 µg/mL (≈ 0.81 µM)	>4		
C=C[C@]1(C)C[C@@H](OC(=O)CSCCOc2cc(=O)oc3cc(Cl)ccc23)[C@]2(C)[C@H](C)CC[C@]3(CCC(=O)[C@H]32)[C@@H](C)[C@@H]1O	0.125 µg/mL (≈ 0.203 µM)	0.125 µg/mL (≈ 0.203 µM)	>4	>4	0.063 µg/mL (≈ 0.102 µM)	0.25 µg/mL (≈ 0.405 µM)	>4	>4	0.125 µg/mL (≈ 0.203 µM)	0.5 µg/mL (≈ 0.81 µM)	1 µg/mL (≈ 1.62 µM)	>4	2	
C=C[C@]1(C)C[C@@H](OC(=O)CSCCOc2cc(=O)oc3cc(F)ccc23)[C@]2(C)[C@H](C)CC[C@]3(CCC(=O)[C@H]32)[C@@H](C)[C@@H]1O	0.031 µg/mL (≈ 0.0516 µM)	0.125 µg/mL (≈ 0.208 µM)	>4	>4	0.25 µg/mL (≈ 0.416 µM)	0.125 µg/mL (≈ 0.208 µM)	2	>4	0.125 µg/mL (≈ 0.208 µM)	0.25 µg/mL (≈ 0.416 µM)	0.125 µg/mL (≈ 0.208 µM)	>4		
C=C[C@]1(C)C[C@@H](OC(=O)CSCCOc2cc(=O)oc3ccc(Br)cc23)[C@]2(C)[C@H](C)CC[C@]3(CCC(=O)[C@H]32)[C@@H](C)[C@@H]1O	0.25 µg/mL (≈ 0.378 µM)	1 µg/mL (≈ 1.51 µM)	>4	2	2 µg/mL (≈ 3.02 µM)	0.25 µg/mL (≈ 0.378 µM)	2	>4	2 µg/mL (≈ 3.02 µM)	16 µg/mL (≈ 24.2 µM)	1 µg/mL (≈ 1.51 µM)	2	4	>4

Reference: ChEMBL document CHEMBL6078666, “Discovery of Novel Coumarin Pleuromutilin Derivatives as Potent Anti-MRSA Agents” (J Med Chem, 2024)
